Laboratory results reported in patent US20250152605A1, “METHOD AND DRUG FOR TREATING NEURONAL CEROID LIPOFUSCINOSIS” (priority 2021, published 2025).

Key:
p62 = p62 transcription (qRT-PCR) and p62 protein level in human neurons; format: cell-based
Method: The cells in the cell-culture dish were collected, extracted using AxyPrep Total RNA Mini Prep Kit or Qiagen AxyPrep Total RNA Mini Prep Kit, and the extracted RNA concentration is measured using Nanodrop; the extracted mRNA was reverse transcribed into cDNA by Transgen's EasyScript® One-Step gDNA Removal and cDNA Synthesis SuperMix and the primers used for reverse transcription were Oligo dT primers; the completion of reverse transcription followed by qRT-PCR reaction through PerfectStart™ Green qPCR SuperMix to detect the expression of the target gene; the qRT-PCR reaction was performed on the Bio-Rad CFX96 Real-Time PCR system; see Table 2 and Table 3 for the 20 μL qRT-PCR reaction system and reaction procedures; data analysis was performed in Prism 7 software using the 2^−ΔΔCt process with GAPDH as internal reference for relative quantification of the expression of the target gene.
FIG. 41: Compound G increased intracellular p62 protein levels. (a) 24 hours after treatment of human neurons with Compound G or after KEAP1 knockdown, transcriptional levels of the p62 gene were detected by qRT-PCR (n=3). (b) 24 hours after treatment of human neurons with Compound G or after KEAP1 knockdown, intracellular p62 protein levels were detected by Western blotting and band intensity statistics (n=3) were performed. […]

CLN3^Δex7/8 neurons = test: Intracellular relative ATP content (Cell Titer Glo); format: cell-based, human; details: same number of CLN3^Δex7/8 neurons
Method: Neural stem cells or neurons were digested into single cells and were counted using a hemocytometer. The cell suspension was then diluted to the same cell concentration (10^5˜10^6/mL). 100 μL of cell suspension was taken out into a white 96-well analysis plate, and 100 μL of CellTiter-Lumi™ Steady Plus reagent that had been equilibrated to room temperature was added, shaken to mix, and incubated at room temperature for 15 minutes. The chemiluminescence intensity of the sample was then read using a multifunctional microplate reader to indicate the intracellular relative ATP content.
To test the effect of compound G on mitochondrial homeostasis in CLN3^Δex7/8 neurons, fluorescently labeled mitochondrial outer membrane protein OMP25-GFP was overexpressed in neurons, and the morphological changes of mitochondria were observed by laser confocal microscope. […] The amount of ATP generation in the same number of neurons was tested using Cell Titer Glo reagent.

C/C=C1\C(=O)C[C@H]2[C@@H]3CCC4=CC(=O)CC[C@]4(C)[C@H]3CC[C@]12C [Compound G, (Z)-guggulsterone]
p62 protein level (p62; 24 hours, Western blotting): increase the p62 protein level
transcription level of p62 (p62; incubation for 24 hours, qRT-PCR): significantly increase
capacity of ATP generation (CLN3^Δex7/8 neurons): significantly increased
